Test results from patent US11834454B2, “Alkynylphenylbenzamide compounds and applications thereof” (SHENZHEN NEWDEL BIOTECH CO., LTD., priority 2021, dated 2023).

Assays:
PDGFRB = PDGFRB (Homo sapiens, UniProt P09619); assay: Kinase selectivity, Z'-LYTE
Method: (§1) Enzymatic reaction: In a 384-well plate, added 5 μL of enzyme-substrate system [50 mM 4-hydroxyethylpiperazineethanesulfonic acid (HEPES) pH 7.5, 0.01% BRIJ-35, 10 mM of magnesium chloride (MgCl2), 1 mM of ethylene glycol bis(2-aminoethyl ether)tetraacetic acid (EGTA), 2 μM of Tyr 01 peptide substrate], transferred 5 nL of compound (concentration gradient) using an Echo520 Ultra-Micro Liquid Pipetting System. […] Shaked and mixed, then centrifuged, and reacted at 30° C. in the dark for 1.5 hours.

Bcr-Abl = Bcr-Abl (Homo sapiens, UniProt P00519); assay: Kinase selectivity, Z'-LYTE
Method: as §1

Kit = Kit (Homo sapiens, UniProt P10721); assay: Kinase selectivity, Z'-LYTE
Method: as §1

RET = RET (Homo sapiens, UniProt P07949); assay: Kinase selectivity, Z'-LYTE
Method: as §1

PDGFRA = PDGFRA (Homo sapiens, UniProt P16234); assay: Kinase selectivity, Z'-LYTE
PDGFRA, sequence (P16234 24-1089, species assumed): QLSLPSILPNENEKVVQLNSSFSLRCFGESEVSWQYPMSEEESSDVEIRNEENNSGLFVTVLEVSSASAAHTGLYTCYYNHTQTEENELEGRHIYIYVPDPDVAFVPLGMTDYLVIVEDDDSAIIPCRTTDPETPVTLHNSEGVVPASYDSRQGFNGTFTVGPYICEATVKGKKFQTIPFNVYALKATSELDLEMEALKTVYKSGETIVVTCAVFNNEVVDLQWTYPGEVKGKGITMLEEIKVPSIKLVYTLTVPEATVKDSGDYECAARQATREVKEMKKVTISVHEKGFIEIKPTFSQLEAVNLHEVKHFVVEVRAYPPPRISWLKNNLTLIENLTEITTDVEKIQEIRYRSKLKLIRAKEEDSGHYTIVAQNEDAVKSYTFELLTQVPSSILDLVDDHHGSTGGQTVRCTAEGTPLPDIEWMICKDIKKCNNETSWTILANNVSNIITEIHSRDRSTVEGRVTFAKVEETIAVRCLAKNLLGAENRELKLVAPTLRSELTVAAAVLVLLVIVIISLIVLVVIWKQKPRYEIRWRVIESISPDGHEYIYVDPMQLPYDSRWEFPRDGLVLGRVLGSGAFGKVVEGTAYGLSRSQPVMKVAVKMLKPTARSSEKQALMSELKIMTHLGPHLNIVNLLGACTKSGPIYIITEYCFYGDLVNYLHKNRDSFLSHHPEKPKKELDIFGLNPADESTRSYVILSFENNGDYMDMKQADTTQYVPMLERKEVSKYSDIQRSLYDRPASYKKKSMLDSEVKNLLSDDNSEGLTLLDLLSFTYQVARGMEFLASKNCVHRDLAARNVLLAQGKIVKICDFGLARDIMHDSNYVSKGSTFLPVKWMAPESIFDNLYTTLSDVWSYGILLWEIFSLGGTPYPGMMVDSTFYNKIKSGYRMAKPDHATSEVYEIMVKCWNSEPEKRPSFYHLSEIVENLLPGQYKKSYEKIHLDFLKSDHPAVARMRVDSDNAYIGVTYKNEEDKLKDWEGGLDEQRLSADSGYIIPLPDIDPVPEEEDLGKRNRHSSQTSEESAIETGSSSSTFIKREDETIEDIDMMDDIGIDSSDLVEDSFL
Method: as §1

SRC = SRC (Homo sapiens, UniProt P12931); assay: Kinase selectivity, Z'-LYTE
SRC, sequence (P12931 whole entry, species assumed): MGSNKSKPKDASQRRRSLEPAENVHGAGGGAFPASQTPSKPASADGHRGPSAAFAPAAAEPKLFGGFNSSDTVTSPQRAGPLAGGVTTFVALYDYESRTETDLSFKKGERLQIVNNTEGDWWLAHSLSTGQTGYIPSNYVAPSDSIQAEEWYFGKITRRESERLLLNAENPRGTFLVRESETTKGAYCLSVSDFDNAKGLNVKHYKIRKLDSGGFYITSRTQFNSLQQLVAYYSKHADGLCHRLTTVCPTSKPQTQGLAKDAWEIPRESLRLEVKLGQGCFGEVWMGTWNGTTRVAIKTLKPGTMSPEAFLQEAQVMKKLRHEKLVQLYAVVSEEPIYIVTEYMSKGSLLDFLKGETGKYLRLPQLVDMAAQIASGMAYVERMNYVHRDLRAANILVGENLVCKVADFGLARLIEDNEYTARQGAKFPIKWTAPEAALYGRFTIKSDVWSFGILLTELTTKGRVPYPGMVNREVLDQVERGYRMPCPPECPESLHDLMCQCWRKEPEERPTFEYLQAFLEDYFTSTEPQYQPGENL
Method: as §1

[1] = Effect on the body weight of mice in the allograft study; type: in vivo, CB17-SCID female mice; settings: four doses 6.25, 12.5, 25, 50 mg/kg oral once a day
Method: After washed twice with normal saline, the cells were adjusted to a density of 1×10^7 cells/mL and placed on ice, and injected subcutaneously into the right axilla of CB17-SCID female mice (purchased from Viton Lever, Beijing, 6-8 weeks old) as soon as possible, with 200 μL each injection.
The control group was given the same volume of mixed solvent orally. Body weight and tumor volume were recorded every two days.

Kit, sequence (P10721 26-976, species assumed): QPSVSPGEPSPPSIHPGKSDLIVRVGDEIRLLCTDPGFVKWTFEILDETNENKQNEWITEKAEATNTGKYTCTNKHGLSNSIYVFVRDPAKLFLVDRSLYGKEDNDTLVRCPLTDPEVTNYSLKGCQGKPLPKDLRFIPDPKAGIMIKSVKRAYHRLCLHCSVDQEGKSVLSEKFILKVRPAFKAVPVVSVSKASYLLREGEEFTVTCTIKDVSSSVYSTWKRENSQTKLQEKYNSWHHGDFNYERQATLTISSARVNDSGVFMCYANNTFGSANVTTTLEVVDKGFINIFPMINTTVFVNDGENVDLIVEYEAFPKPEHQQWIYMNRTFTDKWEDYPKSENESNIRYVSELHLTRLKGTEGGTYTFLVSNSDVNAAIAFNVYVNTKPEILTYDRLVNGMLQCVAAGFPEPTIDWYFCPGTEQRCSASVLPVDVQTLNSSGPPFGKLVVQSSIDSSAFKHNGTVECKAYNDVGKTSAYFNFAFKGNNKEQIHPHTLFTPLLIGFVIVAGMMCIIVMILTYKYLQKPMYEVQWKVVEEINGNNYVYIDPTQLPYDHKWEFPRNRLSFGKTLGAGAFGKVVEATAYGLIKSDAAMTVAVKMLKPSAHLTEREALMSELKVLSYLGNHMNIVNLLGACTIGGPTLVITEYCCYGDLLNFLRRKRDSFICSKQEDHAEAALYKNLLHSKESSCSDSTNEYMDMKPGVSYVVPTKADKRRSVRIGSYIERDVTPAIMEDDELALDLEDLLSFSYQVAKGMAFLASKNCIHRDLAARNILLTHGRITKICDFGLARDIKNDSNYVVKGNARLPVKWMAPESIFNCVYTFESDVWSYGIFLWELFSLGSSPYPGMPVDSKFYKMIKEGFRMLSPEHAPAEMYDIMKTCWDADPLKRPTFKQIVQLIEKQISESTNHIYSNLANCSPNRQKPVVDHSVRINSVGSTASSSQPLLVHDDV
RET, sequence (P07949 29-1114, species assumed): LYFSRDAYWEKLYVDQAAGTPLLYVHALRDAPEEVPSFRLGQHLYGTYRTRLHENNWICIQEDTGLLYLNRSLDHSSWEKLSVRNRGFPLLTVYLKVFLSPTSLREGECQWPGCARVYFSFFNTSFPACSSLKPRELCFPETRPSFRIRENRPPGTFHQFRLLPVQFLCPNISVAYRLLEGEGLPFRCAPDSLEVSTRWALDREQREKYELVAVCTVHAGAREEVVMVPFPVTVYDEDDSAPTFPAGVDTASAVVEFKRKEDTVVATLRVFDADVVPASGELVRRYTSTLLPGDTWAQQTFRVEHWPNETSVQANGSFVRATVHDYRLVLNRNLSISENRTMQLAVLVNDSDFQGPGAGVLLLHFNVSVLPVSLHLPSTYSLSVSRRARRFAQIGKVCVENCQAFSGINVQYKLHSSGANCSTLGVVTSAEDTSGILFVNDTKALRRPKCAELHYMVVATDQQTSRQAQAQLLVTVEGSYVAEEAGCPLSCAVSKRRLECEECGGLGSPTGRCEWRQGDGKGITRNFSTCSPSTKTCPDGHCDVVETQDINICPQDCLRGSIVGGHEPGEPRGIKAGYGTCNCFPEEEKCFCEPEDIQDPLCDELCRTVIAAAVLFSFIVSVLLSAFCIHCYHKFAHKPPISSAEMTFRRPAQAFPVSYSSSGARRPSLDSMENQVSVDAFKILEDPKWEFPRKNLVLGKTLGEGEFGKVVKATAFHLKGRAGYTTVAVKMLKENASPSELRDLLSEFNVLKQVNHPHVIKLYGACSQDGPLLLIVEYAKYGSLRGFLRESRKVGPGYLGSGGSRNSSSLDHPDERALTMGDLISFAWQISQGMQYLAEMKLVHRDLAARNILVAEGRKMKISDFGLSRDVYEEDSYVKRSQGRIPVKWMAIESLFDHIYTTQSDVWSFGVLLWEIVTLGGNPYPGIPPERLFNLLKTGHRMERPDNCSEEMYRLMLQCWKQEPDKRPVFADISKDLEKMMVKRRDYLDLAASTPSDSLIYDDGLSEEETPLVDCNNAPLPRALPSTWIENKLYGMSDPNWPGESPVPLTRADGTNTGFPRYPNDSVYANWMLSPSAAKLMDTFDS
Bcr-Abl, sequence (P00519 242-493 limits assumed): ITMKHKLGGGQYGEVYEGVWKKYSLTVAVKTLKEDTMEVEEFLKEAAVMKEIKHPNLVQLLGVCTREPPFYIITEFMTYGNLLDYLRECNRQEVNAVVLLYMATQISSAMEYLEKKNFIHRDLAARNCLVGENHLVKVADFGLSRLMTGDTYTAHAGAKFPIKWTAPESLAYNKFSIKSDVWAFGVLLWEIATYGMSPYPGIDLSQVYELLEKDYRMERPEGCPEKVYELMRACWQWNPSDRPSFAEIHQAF
PDGFRB, sequence (P09619 33-1106, species assumed): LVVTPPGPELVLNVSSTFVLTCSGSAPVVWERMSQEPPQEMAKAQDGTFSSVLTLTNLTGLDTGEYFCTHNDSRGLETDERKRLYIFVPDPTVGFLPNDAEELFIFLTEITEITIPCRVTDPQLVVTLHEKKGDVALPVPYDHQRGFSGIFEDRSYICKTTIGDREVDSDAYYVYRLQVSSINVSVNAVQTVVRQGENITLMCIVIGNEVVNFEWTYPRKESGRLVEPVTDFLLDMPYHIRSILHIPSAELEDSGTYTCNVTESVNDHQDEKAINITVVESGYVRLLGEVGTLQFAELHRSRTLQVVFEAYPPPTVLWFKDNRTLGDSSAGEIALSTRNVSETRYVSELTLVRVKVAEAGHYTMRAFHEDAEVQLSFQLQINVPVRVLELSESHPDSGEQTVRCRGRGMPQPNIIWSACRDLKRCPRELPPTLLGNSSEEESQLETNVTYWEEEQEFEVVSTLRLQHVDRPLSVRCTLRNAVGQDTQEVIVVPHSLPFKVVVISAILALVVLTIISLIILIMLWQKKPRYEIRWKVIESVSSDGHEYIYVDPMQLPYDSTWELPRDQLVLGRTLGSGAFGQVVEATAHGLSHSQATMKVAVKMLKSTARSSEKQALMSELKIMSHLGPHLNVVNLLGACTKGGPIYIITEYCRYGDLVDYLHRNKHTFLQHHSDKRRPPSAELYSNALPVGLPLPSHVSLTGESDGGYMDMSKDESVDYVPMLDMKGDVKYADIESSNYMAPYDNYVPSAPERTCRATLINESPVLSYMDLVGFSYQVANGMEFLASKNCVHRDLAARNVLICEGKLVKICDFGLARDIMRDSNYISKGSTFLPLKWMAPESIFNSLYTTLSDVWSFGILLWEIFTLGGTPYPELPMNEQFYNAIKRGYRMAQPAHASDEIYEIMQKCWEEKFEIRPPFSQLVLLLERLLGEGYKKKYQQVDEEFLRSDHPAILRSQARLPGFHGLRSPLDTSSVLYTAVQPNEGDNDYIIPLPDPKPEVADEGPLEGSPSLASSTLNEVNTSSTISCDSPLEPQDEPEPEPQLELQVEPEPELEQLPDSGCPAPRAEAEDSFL

IC50 (PDGFRB): > 10 µM
IC50 (Bcr-Abl): > 10 µM
IC50 (Kit): 1670 nM
IC50 (RET): > 10 µM
IC50 (PDGFRA): 5.89 µM
IC50 (SRC): 526 nM
Structure (SMILES): Cc1c(C#Cc2cnc3ccc(N4CCC(O)CC4)nn23)cccc1C(=O)Nc1cc(Cl)cc(C(F)(F)F)c1 [XS3-55, N-(3-CHLORO-5-(TRIFLUOROMETHYL)PHENYL)-3-((6-(4-HYDROXYPIPERIDIN-1-YL)IMIDAZO[1,2-B]PYRIDAZINE-3-YL)ETHYNYL)-2-METHYLBENZAMIDE]
effect on mouse body weight [1]: no obvious adverse effect
